Experimental findings from ChEMBL document CHEMBL1128861 (Bioorg Med Chem Lett, 1995) are described below.

Where only a bound is given, the exact number is not on record here.

In assay [1] the target is Muscarinic acetylcholine receptor M3 (Cavia porcellus) (UniProt Q8VH26). Briefly: Affinity for ileal muscarinic M3 receptor of guinea pig ileum. The format is tissue-based.
In assay [2] the target is Serotonin 3 (5-HT3) receptor (Homo sapiens) (UniProt P46098+A5X5Y0+O95264+Q70Z44+Q8WXA8). Nature of the assay: Binding affinity against 5-hydroxytryptamine 3 receptor of guinea pig ileum. As to conditions: Cavia porcellus, target entry is the homologue from another species. The format is tissue-based.
For assay [3], the target named is Histamine H1 receptor (Cavia porcellus) (UniProt P31389). Nature of the assay: Affinity for H1 histamine receptor of guinea pig ileum. The format is tissue-based.
Histamine H1 receptor (Cavia porcellus), sequence (P31389 whole entry): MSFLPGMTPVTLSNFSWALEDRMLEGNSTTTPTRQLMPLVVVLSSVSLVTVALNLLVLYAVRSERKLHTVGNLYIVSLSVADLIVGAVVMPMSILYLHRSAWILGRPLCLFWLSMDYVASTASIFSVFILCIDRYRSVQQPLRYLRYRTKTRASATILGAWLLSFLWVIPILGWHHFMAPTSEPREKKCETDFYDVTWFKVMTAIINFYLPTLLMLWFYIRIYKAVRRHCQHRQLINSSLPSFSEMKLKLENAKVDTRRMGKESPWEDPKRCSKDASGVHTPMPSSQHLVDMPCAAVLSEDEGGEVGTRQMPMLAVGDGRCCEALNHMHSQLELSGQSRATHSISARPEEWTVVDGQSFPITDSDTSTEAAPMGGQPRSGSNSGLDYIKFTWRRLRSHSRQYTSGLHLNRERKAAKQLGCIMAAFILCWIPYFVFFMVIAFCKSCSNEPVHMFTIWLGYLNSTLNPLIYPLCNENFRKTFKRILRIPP
For assay [4], the target named is 5-hydroxytryptamine receptor 2A (Rattus norvegicus) (UniProt P14842). Briefly: Affinity for 5-HT2A receptor of rat tail artery. The format is tissue-based.
5-hydroxytryptamine receptor 2A (Rattus norvegicus), sequence (P14842 whole entry): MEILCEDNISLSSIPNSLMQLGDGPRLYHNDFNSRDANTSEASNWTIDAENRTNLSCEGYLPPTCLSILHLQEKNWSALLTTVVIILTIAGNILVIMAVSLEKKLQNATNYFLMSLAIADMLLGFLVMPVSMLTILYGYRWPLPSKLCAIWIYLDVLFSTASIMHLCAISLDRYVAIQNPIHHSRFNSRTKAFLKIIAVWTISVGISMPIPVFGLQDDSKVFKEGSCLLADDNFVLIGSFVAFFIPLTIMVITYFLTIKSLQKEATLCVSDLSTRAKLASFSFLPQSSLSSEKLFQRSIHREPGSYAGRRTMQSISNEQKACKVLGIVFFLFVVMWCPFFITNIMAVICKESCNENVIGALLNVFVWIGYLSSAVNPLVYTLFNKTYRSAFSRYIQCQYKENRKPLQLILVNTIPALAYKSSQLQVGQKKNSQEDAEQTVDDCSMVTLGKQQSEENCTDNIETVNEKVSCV
In assay [5] the target is Adrenergic receptor alpha-1 (Rattus norvegicus) (UniProt P15823+P23944+P43140). Nature of the assay: Affinity for Alpha-1 adrenergic receptor of rat aorta. The format is tissue-based.
In assay [6] the target is T1, 5-hydroxytryptamine receptor 2A (Rattus norvegicus, UniProt P14842). Nature of the assay: Antagonism of 5-HT2A receptor of rat tail artery. As to conditions: read-out: pA2 (converted). The format is functional, tissue-based.
T1 sequence (P14842 whole entry): as above
Assay [7] has as its target 5-hydroxytryptamine receptor 2A (Rattus norvegicus) (UniProt P14842). Nature of the assay: Binding affinity against 5-HT2A receptor of rat tail artery. The format is tissue-based.
Assay [8] has as its target Muscarinic acetylcholine receptor M3 (Cavia porcellus) (UniProt Q8VH26). Nature of the assay: Binding affinity against ileal muscarinic M3 receptor of guinea pig ileum. The format is tissue-based.
The target in assay [9] is T2, Adrenergic receptor alpha-1 (Rattus norvegicus, UniProt P15823+P23944+P43140).
T2 sequence (P15823 whole entry): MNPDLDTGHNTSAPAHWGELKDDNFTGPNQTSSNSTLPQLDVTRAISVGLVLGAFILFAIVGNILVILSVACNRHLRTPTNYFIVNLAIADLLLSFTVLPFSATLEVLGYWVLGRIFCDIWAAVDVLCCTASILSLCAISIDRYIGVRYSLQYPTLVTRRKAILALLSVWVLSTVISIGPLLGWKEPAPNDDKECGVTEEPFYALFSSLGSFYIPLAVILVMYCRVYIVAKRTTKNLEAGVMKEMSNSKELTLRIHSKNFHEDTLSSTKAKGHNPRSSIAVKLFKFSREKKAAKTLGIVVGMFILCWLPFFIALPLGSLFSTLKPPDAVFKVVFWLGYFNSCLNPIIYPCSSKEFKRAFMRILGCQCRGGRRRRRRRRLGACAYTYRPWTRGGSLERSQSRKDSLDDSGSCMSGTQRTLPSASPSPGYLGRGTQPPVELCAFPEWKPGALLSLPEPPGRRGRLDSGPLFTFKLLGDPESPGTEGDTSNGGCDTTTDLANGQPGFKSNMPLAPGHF
T2 sequence (P23944 whole entry): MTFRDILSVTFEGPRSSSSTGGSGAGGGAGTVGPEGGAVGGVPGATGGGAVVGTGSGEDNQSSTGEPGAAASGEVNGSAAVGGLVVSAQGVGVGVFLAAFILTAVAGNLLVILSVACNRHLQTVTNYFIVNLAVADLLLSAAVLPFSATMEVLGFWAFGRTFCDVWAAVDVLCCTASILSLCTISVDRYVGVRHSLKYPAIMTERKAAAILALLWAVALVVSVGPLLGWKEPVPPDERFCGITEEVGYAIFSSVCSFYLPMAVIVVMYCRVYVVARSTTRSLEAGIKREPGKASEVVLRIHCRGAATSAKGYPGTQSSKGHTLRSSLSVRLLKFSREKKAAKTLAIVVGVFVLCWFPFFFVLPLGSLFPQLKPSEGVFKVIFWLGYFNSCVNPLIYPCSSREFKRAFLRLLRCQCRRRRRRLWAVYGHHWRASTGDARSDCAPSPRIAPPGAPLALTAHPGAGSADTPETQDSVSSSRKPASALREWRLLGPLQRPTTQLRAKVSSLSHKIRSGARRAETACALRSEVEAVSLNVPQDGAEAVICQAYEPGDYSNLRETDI
T2 sequence (P43140 whole entry): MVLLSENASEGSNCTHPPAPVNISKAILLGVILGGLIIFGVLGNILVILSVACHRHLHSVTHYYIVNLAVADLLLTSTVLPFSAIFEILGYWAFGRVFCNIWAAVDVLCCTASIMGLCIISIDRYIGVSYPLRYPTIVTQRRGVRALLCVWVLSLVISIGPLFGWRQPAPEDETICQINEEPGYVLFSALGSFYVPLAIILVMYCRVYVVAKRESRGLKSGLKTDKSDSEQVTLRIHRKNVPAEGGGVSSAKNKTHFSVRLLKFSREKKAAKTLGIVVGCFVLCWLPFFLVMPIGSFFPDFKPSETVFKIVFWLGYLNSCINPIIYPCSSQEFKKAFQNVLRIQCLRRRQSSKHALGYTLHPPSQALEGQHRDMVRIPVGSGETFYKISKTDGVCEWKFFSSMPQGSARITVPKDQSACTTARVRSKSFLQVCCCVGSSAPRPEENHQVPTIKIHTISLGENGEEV
Nature of the assay: Antagonism against Alpha-1 adrenergic receptor of rat aorta. The format is functional, tissue-based.

Assay [10] addresses T1, 5-hydroxytryptamine receptor 2A. Nature of the assay: Binding affinity towards 5-HT2A receptor of rat tail artery. The format is tissue-based.
The target in another assay is Histamine H1 receptor (Cavia porcellus, UniProt P31389). Nature of the assay: Antagonism against H1 histamine receptor of guinea pig ileum. As to conditions: read-out: pA2 (converted). The format is functional, tissue-based.
Histamine H1 receptor, sequence (P31389 whole entry): as the sequence (P31389 whole entry) above

Muscarinic acetylcholine receptor M3 (Cavia porcellus), sequence (Q8VH26 1-587): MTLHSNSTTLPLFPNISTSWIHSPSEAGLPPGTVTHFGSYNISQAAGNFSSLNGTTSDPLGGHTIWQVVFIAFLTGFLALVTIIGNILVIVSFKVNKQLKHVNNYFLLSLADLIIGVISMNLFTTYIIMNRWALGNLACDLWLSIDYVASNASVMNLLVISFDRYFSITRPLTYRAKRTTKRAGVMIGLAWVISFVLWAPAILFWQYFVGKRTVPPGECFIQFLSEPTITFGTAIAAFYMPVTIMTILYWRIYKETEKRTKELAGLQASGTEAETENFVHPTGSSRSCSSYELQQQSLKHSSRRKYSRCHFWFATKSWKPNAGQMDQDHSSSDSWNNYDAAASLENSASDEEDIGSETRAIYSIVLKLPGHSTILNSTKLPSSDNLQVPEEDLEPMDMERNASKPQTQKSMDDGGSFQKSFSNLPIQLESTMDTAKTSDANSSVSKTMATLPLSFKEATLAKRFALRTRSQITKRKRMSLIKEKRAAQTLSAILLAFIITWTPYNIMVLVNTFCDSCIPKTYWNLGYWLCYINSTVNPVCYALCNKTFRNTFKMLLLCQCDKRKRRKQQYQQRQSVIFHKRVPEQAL

By pKB is commonly meant −log10 of the KB, conventionally taken in molar units. A higher pKB goes with a small KB. Take `Cn1c2c(c3ccccc31)C(=O)C(CN1CCC(=C(c3ccc(F)cc3)c3ccc(F)cc3)CC1)CC2` (configuration not stated): the pKB in [1] came to 5.7; in assay [3], 7.41; in [4] it was 6.3; in assay [5] it was 5.81. In [2], the pD2 was 6.08.

As for `Cn1c2c(c3ccccc31)C(=O)C(CN1CCC(C(=O)c3ccc(F)cc3)CC1)CC2` (stereo in doubt; (-)-13) [listing 1 of 2 here], the Kb in assay [6] is 0.437 nM.

As to `Cn1c2c(c3ccccc31)C(=O)C(CN1CCC(c3ccccc3)CC1)CC2` (configuration not stated), the pKB in assay [1] was 4.97; in [2] it was < 5.2; in assay [3], 6.4; in [4], 8.43; in [5], 7.58.

For `Cc1nccn1CC1CCc2c(c3ccccc3n2C)C1=O` (configuration not stated), the pKB in assay [3] turned out to be 4.37; in [7], 4.66; in assay [8], 4.72; in assay [5] it was 5.29.

On to `CN(CCn1c(=O)[nH]c2ccccc2c1=O)CC1CCc2c(c3ccccc3n2C)C1=O` (configuration not stated), for which the pKB in assay [1] was 4.68; in assay [2] it was < 5.7; in assay [3] it was 5.9; in [4], 5.5; in assay [5] it was 6.45.

Take `Cn1c2c(c3ccccc31)C(=O)C(CN1CCN(c3ccc(F)cc3)CC1)CC2` (configuration not stated): the negative logarithm of the KB (pKB) in [1] is 5.55; in assay [2] it was < 5.5; in assay [3] it was 6.74; in [5], 7.8. Moreover, in assay [6], the Kb was 2.51 nM.

Consider `Cn1c2c(c3ccccc31)C(=O)C(CN1CCC(C(=O)c3ccc(F)cc3)CC1)CC2` (racemic) [listing 1 of 2 here], for which, in [6], the Kb was 0.617 nM.

With `Cn1c2c(c3ccccc31)C(=O)C(CN1CC=C(c3c[nH]c4ccccc34)CC1)CC2` (configuration not stated), the pKB in [3] was determined as 6.62; in assay [5], 7.58. The Kb in assay [6] was 6.31 nM.

Broadly, the pA2 is the negative logarithm of the molar antagonist concentration that doubles the agonist concentration needed for the same response. Higher therefore signals a more potent antagonist. In the case of `Cn1c2c(c3ccccc31)C(=O)C(CN1CCN(c3ccccc3F)CC1)CC2` (configuration not stated), the pKB in [1] was 4.72; in [2], < 5.2; in assay [3] it was 6.19; in assay [4], 7.8. The compound further came in with a pA2 in assay [9] of 8.75.

On to `Cn1c2c(c3ccccc31)C(=O)C(CN1CCC(C(=O)c3ccc(F)cc3)CC1)CC2` (single isomer, unassigned; (+)) [listing 1 of 2 here], for which the negative-log KB (pKB) in [3] came to 6.82; in assay [5] it was 7.28.

Consider `Cn1c2c(c3ccccc31)C(=O)C(CNCc1ncc[nH]1)CC2` (configuration not stated), for which the pKB in [4] amounted to 6.59.

The compound `Cn1c2c(c3ccccc31)C(=O)C(CNc1ncc[nH]1)CC2` (configuration not stated) displayed a pKB in assay [4] of 6.73.

On to `Cn1c2c(c3ccccc31)C(=O)C(CN1CCC(C(=O)c3ccc(F)cc3)CC1)CC2` (stereo in doubt; (-)-13) [listing 2 of 2 here], for which the pKB in assay [3] amounted to 6.74; in assay [5] it was 8.08.

As usually defined, the Ki is the equilibrium dissociation constant of an inhibitor or competing ligand from its target. Lower therefore signals higher affinity. `O=C(c1ccc(F)cc1)C1CCNCC1`: affinity in assay [10] was put at a Ki of 398 nM. Also, in assay [6], the Kb was 525 nM.

On to `O=C(c1ccc(F)cc1)C1CCN(CCn2c(=O)[nH]c3ccccc3c2=O)CC1` [KETANSERIN], for which the negative-log KB (pKB) in assay [1] was 4.18. Besides, the pA2 in assay [9] turned out to be 8.09. In addition, the Kb on Histamine H1 receptor is 1.41 nM.

Consider `Cn1c2c(c3ccccc31)C(=O)C(CN1CCC(C(=O)c3ccccc3)CC1)CC2` (configuration not stated), for which the pKB is 5.01 in assay [1], < 5.5 in [2], 6.53 in assay [3] and 7.36 in [5]. Besides, in assay [6], the Kb was 4.57 nM.

As to `Cn1c2c(c3ccccc31)C(=O)C(CN1CC=C(c3c[nH]c4ccc(F)cc34)CC1)CC2` (configuration not stated), the results for the pKB in assay [3], in [4] and in assay [5] were 6.6, 7.22 and 6.49, respectively.

Take `Cn1c2c(c3ccccc31)C(=O)C(CN1CCC(C(=O)c3ccc(F)cc3)CC1)CC2` (racemic) [listing 2 of 2 here]: the pKB in assay [1] is 5.19; in assay [2] it was < 5.7; in [3] it was 6.92; in [5], 7.96.

As for `Cn1c2c(c3ccccc31)C(=O)C(CN1CCCCC1)CC2` (configuration not stated), the pKB in [1] was 4.98; in assay [2], < 5.3; in assay [3] it was 5.69; in [4], 5.98; in assay [5] it was 6.11.

Turning to `COc1ccc2[nH]cc(C3=CCN(CC4CCc5c(c6ccccc6n5C)C4=O)CC3)c2c1` (configuration not stated), the negative-log KB (pKB) in assay [3] came to 6.31; in [4], 6.09; in [5] it was 6.59.

`Cn1c2c(c3ccccc31)C(=O)C(CNCCc1c[nH]cn1)CC2` (configuration not stated) showed a pKB in assay [4] of 6.75.

In the case of `Cn1c2c(c3ccccc31)C(=O)C(CN1CCC(C(=O)c3ccc(F)cc3)CC1)CC2` (single isomer, unassigned; (+)) [listing 2 of 2 here], in assay [6], the Kb was 64.6 nM.
